Test results published in patent publication US20230085307A1, “PYRIDAZINONE COMPOUND AND HERBICIDE” (NISSAN CHEMICAL CORPORATION, priority 2019, published 2023).

Experiments:
green foxtail [1] = test: Test Example 5: herbicidal effect by foliage application, plastic box (Table 20, symbol G); format: in vivo, green foxtail (Setaria viridis); conditions: foliage application, three weeks after application
Outline: (§1)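 Foliar spray test: emulsion formulation diluted in water to a set application rate, sprayed onto 14-day-old plants raised in diluvial soil at 25° C to 30° C under glass. Both herbicidal effect and crop effect rated visually three weeks later.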

green foxtail [2] = test: Test Example 4: herbicidal effect by soil treatment (Table 19, symbol G); format: in vivo, green foxtail (Setaria viridis)
Outline: (§2)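 Herbicidal effect was rated 3 weeks after treatment, using the scoring criteria of an earlier test. The compound, formulated as an emulsion and diluted in water to a set herbicide amount, had been sprayed uniformly on soil over freshly sown seeds. Growth took place in a greenhouse at 25° C. to 30° C.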

Chinese sprangletop = test: Test Example 3: herbicidal effect by foliage application, Wagner pot (Table 18, symbol D); format: in vivo, chinese sprangletop (Leptochloa chinensis)
Outline: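 Plants were sown in alluvial soil held under 0.1–0.5 cm standing water and grown 14 days in a greenhouse at 25–30 °C. An emulsifiable formulation, water-diluted to the set dose, was then sprayed onto the foliage, and effects were scored three weeks later using previously defined criteria.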

wild oat [3] = test: Test Example 5: herbicidal effect by foliage application, plastic box (Table 20, symbol I); format: in vivo, wild oat (Avena fatua); conditions: foliage application, three weeks after application
Outline: as §1

late watergrass = test: Test Example 1: herbicidal activity, application before weed generation under submerged conditions (Table 16, symbol A); format: in vivo, late watergrass (Echinochloa oryzicola)
Outline: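 Submerged Wagner pots (alluvial soil, 4 cm water) sown with weed seeds and planted with 2.5-leaf rice seedlings; emulsifiable concentrate diluted in water applied to water surface on sowing day. Held in greenhouse at 25-30 °C; injury scored 0-5 by herbicidal rate after three weeks.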

persian speedwell = test: Test Example 5: herbicidal effect by foliage application, plastic box (Table 20, symbol R); format: in vivo, Persian speedwell (Veronica persica); conditions: foliage application, three weeks after application
Outline: as §1

chickweed = test: Test Example 4: herbicidal effect by soil treatment (Table 19, symbol P); format: in vivo, common chickweed (Stellaria media)
Outline: as §2

lambsquarters [4] = test: Test Example 4: herbicidal effect by soil treatment (Table 19, symbol O); format: in vivo, lambsquarters (Chenopodium album)
Outline: as §2

velvetleaf = test: Test Example 5: herbicidal effect by foliage application, plastic box (Table 20, symbol M); format: in vivo, velvetleaf (Abutilon theophrasti); conditions: foliage application, three weeks after application
Outline: as §1

redroot pigweed = test: Test Example 5: herbicidal effect by foliage application, plastic box (Table 20, symbol N); format: in vivo, redroot pigweed (Amaranthus retroflexus); conditions: foliage application, three weeks after application
Outline: as §1

windgrass [5] = test: Test Example 5: herbicidal effect by foliage application, plastic box (Table 20, symbol L); format: in vivo, windgrass (Apera spica-venti); conditions: foliage application, three weeks after application
Outline: as §1

Japanese bulrush = test: Test Example 2: herbicidal activity, application during weed generation under submerged conditions (Table 17, symbol B); format: in vivo, Japanese bulrush (Schoenoplectus juncoides); conditions: application during weed generation, submerged conditions
Outline: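 Steps: fill Wagner pots with alluvial soil; add water to give 4 cm depth; sow the species mixed; grow under glass at 25–30° C.; at 1–2 leaves apply water-diluted emulsion formulation to the water surface at a fixed herbicide amount; score after 3 weeks.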

windgrass [6] = test: Test Example 4: herbicidal effect by soil treatment (Table 19, symbol L); format: in vivo, windgrass (Apera spica-venti)
Outline: as §2

lambsquarters [7] = test: Test Example 5: herbicidal effect by foliage application, plastic box (Table 20, symbol O); format: in vivo, lambsquarters (Chenopodium album); conditions: foliage application, three weeks after application
Outline: as §1

Italian ryegrass = test: Test Example 4: herbicidal effect by soil treatment (Table 19, symbol K); format: in vivo, Italian ryegrass (Lolium multiflorum)
Outline: as §2

barnyard grass = test: Test Example 4: herbicidal effect by soil treatment (Table 19, symbol H); format: in vivo, barnyard grass (Echinochloa crus-galli)
Outline: as §2

wild oat [8] = test: Test Example 4: herbicidal effect by soil treatment (Table 19, symbol I); format: in vivo, wild oat (Avena fatua)
Outline: as §2

[9] = amount of applied herbicide 320 g/ha
[10] = amount of applied herbicide 310 g/ha

| Compound | G: green foxtail, herbicidal effect grade (green foxtail [1]; 320 g/ha) | G: green foxtail, herbicidal effect grade (green foxtail [2]; [9]) | herbicidal effect on Chinese sprangletop (D) (Chinese sprangletop; 320 g/ha) | I: wild oat, herbicidal effect grade (wild oat [3]; 320 g/ha) | Herbicidal effect, A: late watergrass (late watergrass; [9]) | R: persian speedwell, herbicidal effect grade (persian speedwell; 320 g/ha) | P: chickweed, herbicidal effect grade (chickweed; [9]) | O: lambsquarters, herbicidal effect grade (lambsquarters [4]; [9]) | M: velvetleaf, herbicidal effect grade (velvetleaf; 320 g/ha) | N: redroot pigweed, herbicidal effect grade (redroot pigweed; 320 g/ha) | L: windgrass, herbicidal effect grade (windgrass [5]; 320 g/ha) | herbicidal effect rating, B: Japanese bulrush (Japanese bulrush; AAH 320 g/ha) | L: windgrass, herbicidal effect grade (windgrass [6]; [9]) | O: lambsquarters, herbicidal effect grade (lambsquarters [7]; 320 g/ha) | K: Italian ryegrass, herbicidal effect grade (Italian ryegrass; [9]) | H: barnyard grass, herbicidal effect grade (barnyard grass; [9]) | I: wild oat, herbicidal effect grade (wild oat [8]; [9]) | also measured |
| --- | --- | --- | --- | --- | --- | --- | --- | --- | --- | --- | --- | --- | --- | --- | --- | --- | --- | --- |
| CCCC(=O)Oc1c(C)nn(C)c(=O)c1-c1c(-c2ccc(OC)cc2)sc2cc(OC)ccc12 [3-069] | 0 (Herbicidal rate of 5% or less (almost no effect)) | 2 (Herbicidal rate of 20% or more and less than 40%) | 0 (Herbicidal rate of 5% or less (almost no effect)) | 0 (Herbicidal rate of 5% or less (almost no effect)) | 0 (Herbicidal rate of 5% or less (almost no effect)) | 5 (Herbicidal rate of 90% or more (almost completely withered)) | 3 (Herbicidal rate of 40% or more and less than 70%) | 0 (Herbicidal rate of 5% or less (almost no effect)) | 5 (Herbicidal rate of 90% or more (almost completely withered)) | 5 (Herbicidal rate of 90% or more (almost completely withered)) | 3 (Herbicidal rate of 40% or more and less than 70%) | 3 (Herbicidal rate of 40% or more and less than 70%) | 0 (Herbicidal rate of 5% or less (almost no effect)) | 5 (Herbicidal rate of 90% or more (almost completely withered)) | 0 (Herbicidal rate of 5% or less (almost no effect)) | 0 (Herbicidal rate of 5% or less (almost no effect)) | 0 (Herbicidal rate of 5% or less (almost no effect)) |  |
| CCOc1ccc(-c2sc3cc(OC)ccc3c2-c2c(O)c(C)nn(C)c2=O)cc1 [3-072] | 3 (Herbicidal rate of 40% or more and less than 70%) | 0 (Herbicidal rate of 5% or less (almost no effect)) | 3 (Herbicidal rate of 40% or more and less than 70%) | 0 (Herbicidal rate of 5% or less (almost no effect)) | 1 (Herbicidal rate of 5% or more and less than 20%) | 5 (Herbicidal rate of 90% or more (almost completely withered)) | 5 (Herbicidal rate of 90% or more (almost completely withered)) | 2 (Herbicidal rate of 20% or more and less than 40%) | 3 (Herbicidal rate of 40% or more and less than 70%) | 5 (Herbicidal rate of 90% or more (almost completely withered)) | 0 (Herbicidal rate of 5% or less (almost no effect)) | 2 (Herbicidal rate of 20% or more and less than 40%) | 0 (Herbicidal rate of 5% or less (almost no effect)) | 5 (Herbicidal rate of 90% or more (almost completely withered)) | 0 (Herbicidal rate of 5% or less (almost no effect)) | 0 (Herbicidal rate of 5% or less (almost no effect)) | 0 (Herbicidal rate of 5% or less (almost no effect)) |  |
| COc1ccc2c(-c3c(O)c(C)nn(C)c3=O)c(-c3ccc(F)cc3OC)sc2c1 [3-076] | 5 (Herbicidal rate of 90% or more (almost completely withered)) | 5 (Herbicidal rate of 90% or more (almost completely withered)) | 3 (Herbicidal rate of 40% or more and less than 70%) | 4 (Herbicidal rate of 70% or more and less than 90%) | 4 (Herbicidal rate of 70% or more and less than 90%) | 4 (Herbicidal rate of 70% or more and less than 90%) | 2 (Herbicidal rate of 20% or more and less than 40%) | 4 (Herbicidal rate of 70% or more and less than 90%) | 3 (Herbicidal rate of 40% or more and less than 70%) | 5 (Herbicidal rate of 90% or more (almost completely withered)) | 5 (Herbicidal rate of 90% or more (almost completely withered)) | 4 (Herbicidal rate of 70% or more and less than 90%) | 5 (Herbicidal rate of 90% or more (almost completely withered)) | 5 (Herbicidal rate of 90% or more (almost completely withered)) | 4 (Herbicidal rate of 70% or more and less than 90%) | 3 (Herbicidal rate of 40% or more and less than 70%) | 3 (Herbicidal rate of 40% or more and less than 70%) |  |
| CCOc1ccccc1-c1sc2cc(OC)ccc2c1-c1c(O)c(C)nn(CC)c1=O [3-085] | 4 (Herbicidal rate of 70% or more and less than 90%) | 3 (Herbicidal rate of 40% or more and less than 70%) | 0 (Herbicidal rate of 5% or less (almost no effect)) | 4 (Herbicidal rate of 70% or more and less than 90%) | 5 (Herbicidal rate of 90% or more (almost completely withered)) | 5 (Herbicidal rate of 90% or more (almost completely withered)) | 3 (Herbicidal rate of 40% or more and less than 70%) | 3 (Herbicidal rate of 40% or more and less than 70%) | 5 (Herbicidal rate of 90% or more (almost completely withered)) | 5 (Herbicidal rate of 90% or more (almost completely withered)) | 4 (Herbicidal rate of 70% or more and less than 90%) | 3 (Herbicidal rate of 40% or more and less than 70%) | 0 (Herbicidal rate of 5% or less (almost no effect)) | 3 (Herbicidal rate of 40% or more and less than 70%) | 0 (Herbicidal rate of 5% or less (almost no effect)) | 3 (Herbicidal rate of 40% or more and less than 70%) | 0 (Herbicidal rate of 5% or less (almost no effect)) |  |
| CCCC(=O)Oc1c(C)nn(C)c(=O)c1-c1c(-c2ccccc2OC)sc2cc(OCC)ccc12 [3-090] |  |  |  |  |  |  |  |  |  |  |  |  |  |  |  |  |  | G: green foxtail, herbicidal effect grade (green foxtail [1]; 310 g/ha): 4 (Herbicidal rate of 70% or more and less than 90%); G: green foxtail, herbicidal effect grade (green foxtail [2]; [10]): 3 (Herbicidal rate of 40% or more and less than 70%); herbicidal effect on Chinese sprangletop (D) (Chinese sprangletop; 310 g/ha): 5 (Herbicidal rate of 90% or more (almost completely withered)); I: wild oat, herbicidal effect grade (wild oat [3]; 310 g/ha): 4 (Herbicidal rate of 70% or more and less than 90%); Herbicidal effect, A: late watergrass (late watergrass; [10]): 5 (Herbicidal rate of 90% or more (almost completely withered)); R: persian speedwell, herbicidal effect grade (persian speedwell; 310 g/ha): 5 (Herbicidal rate of 90% or more (almost completely withered)); P: chickweed, herbicidal effect grade (chickweed; [10]): 4 (Herbicidal rate of 70% or more and less than 90%); O: lambsquarters, herbicidal effect grade (lambsquarters [4]; [10]): 4 (Herbicidal rate of 70% or more and less than 90%); M: velvetleaf, herbicidal effect grade (velvetleaf; 310 g/ha): 5 (Herbicidal rate of 90% or more (almost completely withered)); N: redroot pigweed, herbicidal effect grade (redroot pigweed; 310 g/ha): 5 (Herbicidal rate of 90% or more (almost completely withered)); L: windgrass, herbicidal effect grade (windgrass [5]; 310 g/ha): 5 (Herbicidal rate of 90% or more (almost completely withered)); herbicidal effect rating, B: Japanese bulrush (Japanese bulrush; AAH 310 g/ha): 4 (Herbicidal rate of 70% or more and less than 90%); L: windgrass, herbicidal effect grade (windgrass [6]; [10]): 0 (Herbicidal rate of 5% or less (almost no effect)); O: lambsquarters, herbicidal effect grade (lambsquarters [7]; 310 g/ha): 5 (Herbicidal rate of 90% or more (almost completely withered)); K: Italian ryegrass, herbicidal effect grade (Italian ryegrass; [10]): 4 (Herbicidal rate of 70% or more and less than 90%); H: barnyard grass, herbicidal effect grade (barnyard grass; [10]): 2 (Herbicidal rate of 20% or more and less than 40%); I: wild oat, herbicidal effect grade (wild oat [8]; [10]): 0 (Herbicidal rate of 5% or less (almost no effect)) |
